Series [1] has as its system SK-MEL-28 melanoma cells. The series is described as follows: MTT cell viability, SK-MEL-28. Type of series: cell-based, human. To be noted: for IC50: Homo sapiens, SK-MEL-28, 48 h, read-out: IC50 (48 h) SK-MEL-28.
The subject of series [2] is Mushroom tyrosinase. The series is described as follows: Tyrosinase mediated GSH depletion assay. To be noted: for % GSH depletion (2 h) Tyrosinase/O2: 2 h incubation. Format: biochemical.
Another series has as its system B16-F0 melanoma cells. The series is described as follows: MTT cell viability, B16-F0. Format: cell-based, murine. To be noted: for IC50: Mus musculus, B16F0, 48 h, read-out: IC50 (48 h) B16-F0.
For series [3] the following is noted: clinical trials terminated; cited from earlier work.
Series [4] deals with tyrosinase shRNA transfected SK-MEL-28 cells. Kind of series: Drug sensitivity assay using tyrosinase shRNA transfected cells. Type of series: cell-based, human.
Another series concerns MeWo cells. Kind of series: MTT cell viability, MeWo. Type of series: cell-based, human. The following applies: 75 μM.
Series [5] concerns SK-MEL-28 melanoma cells. Kind of series: Cell cycle analyses by flow cytometry. Type of series: cell-based, human. The following applies: 48 h.
The subject of series [6] is amelanotic C32 melanoma cells. The series is described as follows: Reactive oxygen species. Type of series: cell-based, human.
Series [7] relates to amelanotic C32 melanoma cells. The series is described as follows: Intracellular GSH measurement, C32. Format: cell-based, human. The following applies: for Intracellular GSH (ICG) depletion (2 h): 75 μM.
Series [8] relates to melanocytic SK-MEL-28 melanoma cells. Kind of series: Reactive oxygen species. Format: cell-based, human. To be noted: SK-MEL-28.
The test system of the next series is SK-MEL-5 cells. The series is described as follows: MTT cell viability, SK-MEL-5. Format: cell-based, human. To be noted: 75 μM.
Series [9] concerns amelanotic SK-MEL-24 cells. Kind of series: MTT cell viability, SK-MEL-24. Format: cell-based. To be noted: 75 μM.
The nature of another series: MTT cell viability, BJ. Type of series: cell-based. The following applies: human, BJ skin fibroblast cells.
Series [10] is described as follows: MTT cell viability, SW-620. To be noted: human, SW-620 colorectal adenocarcinoma cells. Format: cell-based.
The next series has as its system amelanotic C32 cells. Kind of series: MTT cell viability, C32. Type of series: cell-based, human. The following applies: 75 μM.
In another series the test system is B16-F10 melanoma cells. The series is described as follows: MTT cell viability, B16-F10. Type of series: cell-based, murine. To be noted: 75 μM.
A further series can be described thus: MTT cell viability, PC-3. Type of series: cell-based. The following applies: human, PC-3 prostate cells.
Series [11] deals with melanocytic SK-MEL-28 melanoma cells. The series is described as follows: Intracellular GSH measurement, SK-MEL-28. Format: cell-based, human. To be noted: 75 μM, listed as C00001.
The nature of series [12]: MTT cell viability, Saos-2. Format: cell-based. The following applies: human, Saos-2 osteosarcoma cells.
Series [13] concerns Mushroom tyrosinase. Format: biochemical. The following applies: pH 7.4, listed as C00001.

Molecules are shown by their SMILES.

As for `COc1ccc(O)cc1` [4-hydroxyanisole], the IC50 in the series with SK-MEL-28 melanoma cells [1] was determined as 50 µM; in the series on B16-F0 melanoma cells, 60 µM. For the same compound, in the series with Mushroom tyrosinase [2] (measurement conducted at 30 min), the “% GSH depletion Tyrosinase/O2” value worked out at 95±3 %. Also, the “liver toxicity in clinical trials” value in [3] is reported as “serious liver toxicity”. Besides, in [4] (4-HA 50 μM), the “cell toxicity when tyrosinase was silenced by shRNA plasmid” value is on record as “significantly less cell toxicity”.
`Cc1cccc(O)c1` [3-hydroxytoluene]: the IC50 in the series with SK-MEL-28 melanoma cells [1] was found to be 2500 µM; with B16-F0 melanoma cells it was 2100 µM.
Take `CC(=O)c1ccccc1` [Acetophenone, acetophenone, reference compound]: the IC50 was greater than 10000 µM in the series on SK-MEL-28 melanoma cells [1] and greater than 12000 µM in the series on B16-F0 melanoma cells. In addition, the “% GSH depletion (2 h) Tyrosinase/O2” value with Mushroom tyrosinase [2] is recorded as 44±3%.
For the compound `CCOC(=O)c1ccccc1O` [Ethyl 2-hydroxybenzoate, ethyl 2-hydroxybenzoate], the IC50 stood at 2000 µM with SK-MEL-28 melanoma cells [1] and 2600 µM in the series with B16-F0 melanoma cells. Besides, the “% GSH depletion (2 h) Tyrosinase/O2” value in the series on Mushroom tyrosinase [2] is recorded as 22±2%.
Consider `COc1cccc(O)c1` [3-hydroxyanisole], for which the values for the IC50 in the series on SK-MEL-28 melanoma cells [1] and with B16-F0 melanoma cells were 3400 µM and 43 µM, respectively. In the series with Mushroom tyrosinase [2], the “% GSH depletion (2 h) Tyrosinase/O2” value is 24±3%.
For `OCc1ccccc1O` [2-hydroxybenzyl alcohol], the figures for the IC50 with SK-MEL-28 melanoma cells [1] and in the series with B16-F0 melanoma cells were 1500 µM and 1100 µM, respectively. The “% GSH depletion (2 h) Tyrosinase/O2” value with Mushroom tyrosinase [2] was 0%.
With `CCOC(=O)c1cccc(O)c1` [Ethyl 3-hydroxybenzoate, ethyl 3-hydroxybenzoate], the IC50 was found to be 2100 µM in the series with SK-MEL-28 melanoma cells [1] and 1900 µM in the series on B16-F0 melanoma cells.
The corresponding values for `Cc1ccccc1` [Toluene, toluene, reference compound] are 10000 µM and greater than 10000 µM.
On to `CCOC(=O)c1ccc(O)cc1` [Ethyl 4-hydroxybenzoate, ethyl 4-hydroxybenzoate], for which the anti-proliferative effect is 52±4% in the series on SK-MEL-28 melanoma cells [1] (75 μM, SK-MEL-28); 55±8% with MeWo cells; 57±5% with SK-MEL-5 cells; 62±11% with B16-F0 melanoma cells (75 μM, B16-F0); 24±3% in [9]; 28±4% in the series with amelanotic C32 cells. Besides, in the series on B16-F10 melanoma cells, the anti-proliferative effect is recorded as 60±8%. For the same compound, the IC50 was found to be 75 µM with SK-MEL-28 melanoma cells [1] and 190 µM in the series on B16-F0 melanoma cells. For the same compound, the “Apoptosis (Sub G0/G1)” value is listed as 2.9±0.3 % with SK-MEL-28 melanoma cells [5] (75 μM), 3.1±0.2 % in the series on SK-MEL-28 melanoma cells [5] (150 μM), 5.0±0.9 % in the series with SK-MEL-28 melanoma cells [5] (250 μM) and 6.2±0.8 % in the series with SK-MEL-28 melanoma cells [5] (500 μM). For the same compound, the G1 stood at 74.7±0.8% in the series with SK-MEL-28 melanoma cells [5] (75 μM), 72.1±0.7% in the series on SK-MEL-28 melanoma cells [5] (150 μM), 63.4±1.8 % in the series with SK-MEL-28 melanoma cells [5] (250 μM) and 59.8±1.6 % in the series with SK-MEL-28 melanoma cells [5] (500 μM). For the same compound, the G2/M was determined as 9.9±0.1% in the series with SK-MEL-28 melanoma cells [5] (75 μM), 10.6±0.9% in the series with SK-MEL-28 melanoma cells [5] (150 μM), 10.7±0.7% with SK-MEL-28 melanoma cells [5] (250 μM) and 10.9±0.4% with SK-MEL-28 melanoma cells [5] (500 μM). Moreover, the S with SK-MEL-28 melanoma cells [5] (75 μM) was determined as 12.4±0.7%; with SK-MEL-28 melanoma cells [5] (150 μM), 13.2±1.2%; in the series with SK-MEL-28 melanoma cells [5] (250 μM), 20.1±2.6 %; with SK-MEL-28 melanoma cells [5] (500 μM), 22.1±0.9 %. Also, the “Fold ROS formation (40 min) at IC50” value in series [6] (75 μM, 40 min, C32) was 6 Fold; in series [8] (75 μM, 40 min), 24 Fold. Besides, the ROS formation result is “significantly less” in series [6] (75-1500 μM, C32, compared with SK-MEL-28); “dose and time dependent increase” in series [8] (75-1500 μM, various time points). Also, the results for the “Intracellular GSH (ICG) depletion (2 h)” value in series [7] (listed as 4-HEB), in [7] (listed as C00001) and in [11] were 8%, 8% and 37%, respectively. The “Intracellular GSH depletion (2 h)” value in [7] (150 μM) is listed as 13%. In addition, the “% GSH depletion (2 h) Tyrosinase/O2” value in the series on Mushroom tyrosinase [2] came out at 24±4%; with Mushroom tyrosinase [2] (listed as 4-HEB), 24%; with Mushroom tyrosinase [2] (listed as C00001) it was 24±4%. The viability at 75 µM in “MTT cell viability, BJ” worked out at 89 ± 7%; in series [10] it was 89 ± 4%; in the series “MTT cell viability, PC-3”, 85 ± 3%; in series [12], 86 ± 1%. In addition, the “toxicity prevented by transfection with tyrosinase shRNA clone 3” value in series [4] (75 μM, 48 h, shRNA3 curtailed tyrosinase expression by 50%) amounted to 24±7%. Moreover, in the series with Mushroom tyrosinase [13] (nM of AA per compound (μM) per tyrosinase (U/ml) per min), the “Tyrosinase Kinetics AA (rate of AA oxidation)” value was 143 nM ^*. The “Tyrosinase Kinetics NADH (rate of NADH oxidation)” value in the series on Mushroom tyrosinase [13] (nM of NADH per compound (μM) per tyrosinase (U/ml) per min) was 389 nM ^*.
Consider `O=C(O)c1ccccc1` [Benzoic acid, benzoic acid, reference compound], for which the IC50 was greater than 10000 µM in the series with SK-MEL-28 melanoma cells [1] and 11000 µM with B16-F0 melanoma cells. For the same compound, in the series with Mushroom tyrosinase [2], the “% GSH depletion (2 h) Tyrosinase/O2” value was 12±2%.
Consider `OCc1ccc(O)cc1` [4-hydroxybenzyl alcohol], for which the IC50 worked out at 2000 µM with SK-MEL-28 melanoma cells [1] and 2200 µM with B16-F0 melanoma cells.
For `O=C(O)c1cccc(O)c1` [3-hydroxybenzoic acid], the results for the IC50 with SK-MEL-28 melanoma cells [1] and in the series on B16-F0 melanoma cells were 2300 µM and 1800 µM, respectively.
For the compound `O=C(O)c1ccc(O)cc1` [4-hydroxybenzoic acid], the results for the IC50 with SK-MEL-28 melanoma cells [1] and in the series on B16-F0 melanoma cells were 11200 µM and 4200 µM, respectively. Further, the “% GSH depletion (2 h) Tyrosinase/O2” value in the series on Mushroom tyrosinase [2] stood at 30±5%.

Values taken from PMC2821678 (Chemico-biological interactions, 2009).
